Data taken from patent US12611453B2, “Method of inducing an HIV-1-specific immune response using a chimpanzee adenovirus vector encoding an hivacat t-cell immunogen and TLR7 agonist” (Gilead Sciences, Inc., priority 2019, dated 2026).

Experiments:
Assay type in all cases: in vitro ADME
P-glycoprotein = P-glycoprotein (Homo sapiens, UniProt P08183); assay: in vitro P-glycoprotein substrate assessment
From the text: (§1) Any ART agents known to inhibit or induce CYP3A, P-glycoprotein, or breast cancer resistance protein are excluded from use in this study during treatment (Period 1). For those participants who may be on a regimen including one of these medications, a regimen switch from one of the prohibited medication to an allowed medication is permitted between the screening and baseline visits. The following agents are excluded from the ART regimen during the study: HIV protease inhibitors (including low-dose ritonavir), cobicistat-containing regimens, elvitegravir, efavirenz, etravirine, and nevirapine.

[1] = target: T1, breast cancer resistance protein (Homo sapiens, UniProt Q9UNQ0); assay: in vitro breast cancer resistance protein substrate assessment
T1 sequence (Q9UNQ0 1-655): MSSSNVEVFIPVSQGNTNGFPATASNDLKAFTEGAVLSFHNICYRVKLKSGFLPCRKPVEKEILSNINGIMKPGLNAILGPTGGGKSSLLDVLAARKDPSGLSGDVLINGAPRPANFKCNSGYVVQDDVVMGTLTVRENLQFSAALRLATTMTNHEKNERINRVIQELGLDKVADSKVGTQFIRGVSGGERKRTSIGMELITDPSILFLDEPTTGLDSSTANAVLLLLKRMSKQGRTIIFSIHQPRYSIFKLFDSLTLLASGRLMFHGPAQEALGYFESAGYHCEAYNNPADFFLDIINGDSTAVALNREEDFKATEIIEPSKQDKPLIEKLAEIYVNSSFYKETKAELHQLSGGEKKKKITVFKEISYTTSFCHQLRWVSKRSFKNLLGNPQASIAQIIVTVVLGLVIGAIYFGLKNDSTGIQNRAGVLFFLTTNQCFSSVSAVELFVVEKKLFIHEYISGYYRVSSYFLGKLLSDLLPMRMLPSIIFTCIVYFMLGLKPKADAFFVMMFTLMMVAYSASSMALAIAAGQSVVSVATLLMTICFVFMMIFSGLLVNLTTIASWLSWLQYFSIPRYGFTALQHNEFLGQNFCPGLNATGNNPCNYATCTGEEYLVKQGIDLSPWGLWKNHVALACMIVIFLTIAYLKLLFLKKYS
From the text: as §1

CYP2D6 = CYP2D6 (Homo sapiens, UniProt P10635); assay: in vitro metabolism by CYP2D6
Chain of CYP2D6 (P10635 whole entry): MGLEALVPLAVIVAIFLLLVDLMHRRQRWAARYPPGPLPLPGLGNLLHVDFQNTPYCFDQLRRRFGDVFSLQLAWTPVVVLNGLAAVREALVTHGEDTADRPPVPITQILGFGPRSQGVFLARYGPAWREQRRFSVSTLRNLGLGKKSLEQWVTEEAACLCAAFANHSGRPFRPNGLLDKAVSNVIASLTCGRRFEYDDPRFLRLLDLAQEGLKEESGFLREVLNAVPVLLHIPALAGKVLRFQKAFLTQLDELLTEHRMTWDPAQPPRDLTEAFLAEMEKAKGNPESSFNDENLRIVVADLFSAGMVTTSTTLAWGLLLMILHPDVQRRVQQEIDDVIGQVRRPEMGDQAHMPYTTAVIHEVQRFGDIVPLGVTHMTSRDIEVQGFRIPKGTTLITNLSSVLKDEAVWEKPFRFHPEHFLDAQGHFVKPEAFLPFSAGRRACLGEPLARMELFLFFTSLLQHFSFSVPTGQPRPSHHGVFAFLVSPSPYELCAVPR

CYP2C8 = target: T2, CYP2C8 (Homo sapiens, UniProt P10632); assay: in vitro metabolism by CYP2C8
T2 sequence (P10632 1-490): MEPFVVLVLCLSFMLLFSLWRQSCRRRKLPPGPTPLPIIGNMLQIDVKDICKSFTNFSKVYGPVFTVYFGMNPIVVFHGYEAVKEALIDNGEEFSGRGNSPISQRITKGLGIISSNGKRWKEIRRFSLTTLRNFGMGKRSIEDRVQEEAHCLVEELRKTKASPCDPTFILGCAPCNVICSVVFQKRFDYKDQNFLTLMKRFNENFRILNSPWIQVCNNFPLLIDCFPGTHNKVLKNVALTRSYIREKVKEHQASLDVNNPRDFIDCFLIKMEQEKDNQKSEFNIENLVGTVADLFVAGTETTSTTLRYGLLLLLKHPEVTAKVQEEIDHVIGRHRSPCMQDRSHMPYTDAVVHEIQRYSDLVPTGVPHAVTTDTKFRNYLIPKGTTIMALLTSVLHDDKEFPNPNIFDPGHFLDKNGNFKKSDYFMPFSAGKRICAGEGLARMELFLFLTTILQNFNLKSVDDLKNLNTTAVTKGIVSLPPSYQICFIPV
From the text: as §1

[2] = target: cytochrome P450 (CYP) 3A4 enzyme (CYP3A) (Homo sapiens, UniProt P08684); assay: in vitro metabolism by cytochrome P450 3A4
Chain of cytochrome P450 (CYP) 3A4 enzyme (CYP3A) (P08684 whole entry): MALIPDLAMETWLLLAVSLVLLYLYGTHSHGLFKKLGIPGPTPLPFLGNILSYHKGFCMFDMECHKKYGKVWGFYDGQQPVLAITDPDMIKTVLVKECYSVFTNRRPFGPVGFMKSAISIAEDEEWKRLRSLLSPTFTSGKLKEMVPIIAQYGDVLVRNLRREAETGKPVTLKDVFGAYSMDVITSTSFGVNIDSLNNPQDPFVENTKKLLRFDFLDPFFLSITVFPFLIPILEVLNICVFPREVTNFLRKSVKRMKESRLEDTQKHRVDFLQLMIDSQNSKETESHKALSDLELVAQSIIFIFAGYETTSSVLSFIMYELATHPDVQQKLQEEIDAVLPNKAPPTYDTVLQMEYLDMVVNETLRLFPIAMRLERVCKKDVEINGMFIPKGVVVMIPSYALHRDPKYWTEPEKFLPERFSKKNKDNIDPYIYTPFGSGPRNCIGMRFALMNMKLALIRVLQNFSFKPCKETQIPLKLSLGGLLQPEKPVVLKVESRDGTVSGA
From the text: as §1

Chain of P-glycoprotein (P08183 whole entry): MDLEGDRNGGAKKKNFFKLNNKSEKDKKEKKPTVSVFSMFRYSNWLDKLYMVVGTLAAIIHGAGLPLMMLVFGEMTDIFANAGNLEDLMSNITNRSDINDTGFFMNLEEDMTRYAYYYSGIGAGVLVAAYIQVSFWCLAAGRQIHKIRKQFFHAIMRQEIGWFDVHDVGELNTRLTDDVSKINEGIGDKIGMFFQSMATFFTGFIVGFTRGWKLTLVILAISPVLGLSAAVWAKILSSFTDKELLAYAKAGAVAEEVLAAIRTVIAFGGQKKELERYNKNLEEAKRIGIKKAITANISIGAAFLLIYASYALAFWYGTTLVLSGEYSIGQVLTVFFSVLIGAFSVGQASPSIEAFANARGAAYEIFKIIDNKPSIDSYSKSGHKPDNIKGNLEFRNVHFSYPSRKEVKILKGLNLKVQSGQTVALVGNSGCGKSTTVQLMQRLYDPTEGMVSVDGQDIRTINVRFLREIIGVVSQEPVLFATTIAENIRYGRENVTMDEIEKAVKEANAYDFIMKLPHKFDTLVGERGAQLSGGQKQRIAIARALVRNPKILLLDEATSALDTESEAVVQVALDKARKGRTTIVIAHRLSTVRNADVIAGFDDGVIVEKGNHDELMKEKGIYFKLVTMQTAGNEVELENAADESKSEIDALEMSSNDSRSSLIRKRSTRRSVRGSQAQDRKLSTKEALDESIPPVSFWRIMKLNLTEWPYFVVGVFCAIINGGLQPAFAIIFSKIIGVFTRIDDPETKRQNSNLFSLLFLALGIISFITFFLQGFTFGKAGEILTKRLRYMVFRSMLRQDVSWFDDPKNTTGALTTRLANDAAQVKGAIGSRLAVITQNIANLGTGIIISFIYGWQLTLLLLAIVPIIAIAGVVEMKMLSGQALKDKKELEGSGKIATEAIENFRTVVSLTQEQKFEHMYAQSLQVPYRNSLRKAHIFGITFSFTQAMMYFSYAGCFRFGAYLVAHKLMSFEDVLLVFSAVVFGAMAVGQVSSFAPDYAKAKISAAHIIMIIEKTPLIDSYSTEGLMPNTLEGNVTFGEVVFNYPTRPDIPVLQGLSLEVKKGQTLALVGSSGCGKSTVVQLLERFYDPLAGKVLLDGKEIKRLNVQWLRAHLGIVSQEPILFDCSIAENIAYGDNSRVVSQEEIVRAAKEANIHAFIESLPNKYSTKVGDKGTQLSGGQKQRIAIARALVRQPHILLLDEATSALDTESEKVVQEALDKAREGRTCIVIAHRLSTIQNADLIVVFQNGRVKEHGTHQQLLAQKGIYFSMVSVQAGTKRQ

CCCCOc1nc(N)c2c(n1)N(Cc1cccc(CN3CCCC3)c1)CC(=O)N2 [compound of Formula (I)]
substrate of P-glycoprotein (P-glycoprotein): substrate | substrate of breast cancer resistance protein [1]: substrate | metabolism by CYP2D6 (contribution to metabolism) (CYP2D6): minor contributions | metabolism by CYP2C8 (contribution to metabolism) (CYP2C8): minor contributions | metabolism by CYP3A4 (contribution to metabolism) [2]: predominantly metabolized
